Measurements published in patent US20220055989A1, “CONDENSED PYRROLES AS NOVEL BROMODOMAIN INHIBITORS” (ALBERT LUDWING UNIVERSITÄT FREIBURG, priority 2018, published 2022).

Key:
[1] = test system: P. falciparum cultures; experiment: Plasmodium falciparum inhibitor treatment for 72 hours, parasitemia by flow cytometry; assay type: cell-based; conditions: 100 μm of compound, vs DMSO control, early ring, mid trophozoite and schizont stages
Protocol: Plasmodium falciparum Inhibitor Treatment for 72 Hours (One Replication Cycle) P. falciparum cultures were treated for 72 hours with 100 μm of compounds (19) to (22), (24) and (25) or DMSO as control. The cultures were stained for DNA content with fluorescent dye Hoechst 33342 (20 μm) and for RNA content with thiazole orange (1 μm). The double negative population represented uninfected erythrocytes (devoid of DNA and low in RNA content) whereas the P. falciparum infected erythrocytes were gated as early ring, mid trophozoite and late schizont stages based on their DNA and RNA content.

[2] = target: T1, BRPF1B (Homo sapiens, UniProt P55201); experiment: Dissociation constant KD BRPF1B; assay type: binding
T1 construct: dissociation constants KD for two bromodomains (BRD4(1) and BRPF1B)
T1 sequence (P55201 628-732 limits assumed): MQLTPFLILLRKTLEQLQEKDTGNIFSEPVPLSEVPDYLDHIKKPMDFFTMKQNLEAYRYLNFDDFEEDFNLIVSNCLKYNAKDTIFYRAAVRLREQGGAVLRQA

[3] = target: T2, BRD4(1) (Homo sapiens, UniProt O60885); experiment: Isothermal titration calorimetry, dissociation constant KD BRD4(1); assay type: binding
T2 construct: BRD4-BD1 was expressed and purified as described previously; made in house
Protocol: BRD4-BD1 was expressed and purified as described previously (Filippakopoulos et al, (2012), Cell 149(1): […]) with the exception of the final buffer for crystallization and ITC analysis (20 mM Hepes/NaOH pH 7.5, 150 mM NaCl). Crystals were grown in the presence of 3.5 M Na-Formate (pH 7.5) at a protein concentration of 10 mg/ml and a ligand concentration of 2 mM added directly to the protein prior to crystallization from a 100 mM stock solution in DMSO. Data were collected at 100K using either a Rigaku HF-007 rotating anode X-ray generator equipped with VariMaxHF optics and a Saturn944 CCD detector or a mar345 image plate respectively at λ=1.54179 Å or at the PXI beamline at the Swiss Light Source at λ=1.000 Å with a Pilatus detector. Data processing and reduction was done with iMOSFLM (Leslie AGW PH (2007), Evolving Methods for Macromolecular Crystallography 245, 41.51), POINTLESS, and SCALA (Kabsch W (2010) Xds. Acta crystallographica. Section D, Biological crystallography 66(Pt 2):125-132; Bruker (2008) SADABS, SAINT and XPREP (Bruker AXS Inc., Madison, Wis., USA); Collaborative Computational Project N (1994) The CCP4 suite: programs for protein crystallography, Acta crystallographica, Section D, Biological crystallography 50(Pt 5):760-763), or with XDS, XSCALE, XDSCONV (Evans P (2006), Scaling and assessment of data quality, Acta crystallographica, Section D, Biological crystallography 62(Pt 1):72-82), and XPREP (Evans P R (2011), An introduction to data reduction: space-group determination, scaling and intensity statistics, Acta crystallographica, Section D, Biological crystallography 67(Pt 4):282-292).
Data were obtained in discrete titration experiments with an injection volume of 12 μl per injection. Subsequently, the heats per injection were calculated as integrals and after normalization against the molar concentrations plotted against the molar ratio as implemented in Microcal Origin. Finally, data were fitted according to a single set of sites binding model with
The dissociation constant Kd, is commonly used to describe the affinity between a ligand L and a protein, i.e. how tightly a ligand binds to a particular protein. The dissociation constant has molar units which correspond to the concentration of ligand at which the binding site on a particular protein is half occupied, i.e. the concentration of the ligand at which the concentration of protein with ligand bound equals the concentration of protein with no ligand bound. The smaller the dissociation constant, the higher the affinity between ligand and protein.

[4] = target: T3, BRD9 (Homo sapiens, UniProt Q9H8M2); experiment: BROMOscan Kd determination BRD9; assay type: binding
T3 construct: T7 phage strains displaying bromodomains were grown; host or cells: T7 phage in E. coli derived from BL21
T3 sequence (Q9H8M2 136-240 limits assumed): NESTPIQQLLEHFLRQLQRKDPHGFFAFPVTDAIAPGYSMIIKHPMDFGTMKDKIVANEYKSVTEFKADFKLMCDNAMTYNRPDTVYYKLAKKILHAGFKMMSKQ
Protocol: (§1) Bromodomain profiling was carried out on the basis of BROMOscan™. This platform accounted for the indirect determination of the dissociation constants between 19 bromodomains and the compound of formula (13), by binding competition against a reference immobilized ligand. Compounds that bind the bromodomain prevent its binding to the immobilized ligand thus reducing the amount of protein captured. […] Hits are identified by measuring the amount of bromodomain captured in test versus control samples. Bromodomain assays for Kd determination: T7 phage strains displaying bromodomains were grown in parallel in 24-well blocks in an E. coli host derived from the BL21 strain. E. coli were grown to log-phase and infected with T7 phage from a frozen stock (multiplicity of infection=0.4) and incubated with shaking at 32° C. until lysis (90-150 minutes). The lysates were centrifuged (5,000×g) and filtered (0.2 μm) to remove cell debris. […] The liganded beads were blocked with excess biotin and washed with blocking buffer (SeaBlock (Pierce), 1% BSA, 0.05% Tween 20, 1 mM DTT) to remove unbound ligand and to reduce non-specific phage binding. […] Test compounds were prepared as 1000× stocks in 100% DMSO. Kds were determined using an 11-point 3-fold compound dilution series with one DMSO control point. All compounds for Kd measurements are distributed by acoustic transfer (non-contact dispensing) in 100% DMSO. The compounds were then diluted directly into the assays such that the final concentration of DMSO was 0.09%. All reactions performed in polypropylene 384-well plates. Each was a final volume of 0.02 ml. […] The bromodomain concentration in the eluates was measured by qPCR. […] All compounds for Kd measurements are distributed by acoustic transfer (non-contact dispensing) in 100% DMSO. The compounds were then diluted directly into the assays such that the final concentration of DMSO was 0.09%. Most Kds were determined using a compound top concentration=10,000 nM. If the initial Kd determined was <0.169 nM (the lowest concentration tested), the measurement was repeated with a serial dilution starting at a lower top concentration. Binding Constants (Kds): Binding constants (Kds) were calculated with a standard dose-response curve using the Hill equation: The Hill Slope was set to −1. Curves were fitted using a non-linear least square fit with the Levenberg-Marquardt algorithm.

[5] = target: T4, CECR2 (Homo sapiens, UniProt Q9BXF3); experiment: BROMOscan Kd determination CECR2; assay type: binding
T4 construct: T7 phage strains displaying bromodomains were grown; host or cells: T7 phage in E. coli derived from BL21
Protocol: as §1

[6] = target: T5, EP300 (Homo sapiens, UniProt Q09472); experiment: BROMOscan Kd determination EP300; assay type: binding
T5 construct: T7 phage strains displaying bromodomains were grown; host or cells: T7 phage in E. coli derived from BL21
T5 sequence (Q09472 1049-1156 limits assumed): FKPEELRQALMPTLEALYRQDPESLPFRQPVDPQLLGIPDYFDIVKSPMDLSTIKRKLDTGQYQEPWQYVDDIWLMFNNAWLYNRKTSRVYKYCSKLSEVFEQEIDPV
Protocol: as §1

[7] = target: T6, BRPF1 (Homo sapiens, UniProt P55201); experiment: BROMOscan Kd determination BRPF1; assay type: binding
T6 construct: T7 phage strains displaying bromodomains were grown; host or cells: T7 phage in E. coli derived from BL21
T6 sequence (P55201 628-732 limits assumed): T1 sequence (P55201 628-732 limits assumed)
Protocol: as §1

[8] = target: T2, BRD4(1); experiment: BROMOscan Kd determination BRD4(1); assay type: binding
Protocol: as §1

[9] = target: T7, BRD7 (Homo sapiens, UniProt Q9NPI1); experiment: BROMOscan Kd determination BRD7; assay type: binding
T7 construct: T7 phage strains displaying bromodomains were grown; host or cells: T7 phage in E. coli derived from BL21
T7 sequence (Q9NPI1 131-235 limits assumed): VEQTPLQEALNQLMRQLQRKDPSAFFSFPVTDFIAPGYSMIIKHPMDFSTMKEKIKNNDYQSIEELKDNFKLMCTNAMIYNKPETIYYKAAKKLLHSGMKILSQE
Protocol: as §1

[10] = test system: HL-60 cells; experiment: GI50 in a culture of HL-60 cells; assay type: cell-based; conditions: concentration required to reduce the population of a culture of HL-60 cells by 50%

T4 sequence (Q9BXF3 434-538 limits assumed): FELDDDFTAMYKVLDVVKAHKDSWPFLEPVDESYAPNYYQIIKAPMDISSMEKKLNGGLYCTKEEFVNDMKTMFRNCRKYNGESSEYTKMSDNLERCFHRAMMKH

Row | Kd [2] | Kd [3] | Kd [4] | Kd [5] | Kd [6] | Kd [7] | Kd [8] | Kd [9] | SMILES | further results
1 | 639 nM |  |  |  |  |  |  |  | Cc1[nH]c(-c2ccc3cc[nH]c3c2)c2c1C(=O)CCCC2 [Compound 24, 1-(1H-indol-6-yl)-3-methyl-5,6,7,8-tetrahydrocyclohepta[c]pyrrol-4(2H)-one] | degree of parasitemia [1]: particularly effective
2 | 910 nM |  |  |  |  |  |  |  | Cc1[nH]c(-c2cccc(O)c2)c2c1C(=O)CCCC2 [Compound 19] | 
3 | 1050 nM | 4560 nM |  |  |  |  |  |  | CCOC(=O)c1[nH]c(C)c2c1CCCCC2=O [Compound 8, Ethyl 3-methyl-4-oxo-2,4,5,6,7,8-hexahydrocyclohepta[c]pyrrole-1-carboxylate] | 
4 | 567 nM |  |  |  |  |  |  |  | Cc1[nH]c(-c2cccc(N)c2)c2c1C(=O)CCCC2 [Compound 20] | 
5 | 713 nM |  |  |  |  |  |  |  | Cc1[nH]c(-c2cccc(C(N)=O)c2)c2c1C(=O)CCCC2 [Compound 25] | 
6 | 1990 nM |  |  |  |  |  |  |  | Cc1[nH]c(-c2ccccc2)c2c1C(=O)CCCC2 [Compound 21] | 
7 | 2310 nM |  |  |  |  |  |  |  | Cc1noc(-c2[nH]c(C)c3c2CCCCC3=O)n1 [Compound 22] | 

The remaining lines, values behind:

Row | SMILES | Kd [2] | Kd [3] | Kd [4] | Kd [5] | Kd [6] | Kd [7] | Kd [8] | Kd [9] | further results
8 | CCN(CC)S(=O)(=O)c1ccc(O)c(NC(=O)c2[nH]c(C)c3c2CCCCC3=O)c1 [Compound 18] |  | 72.2 nM |  |  |  |  |  |  | 
9 | COc1ccc(S(=O)(=O)N2CC3(COC3)C2)cc1NC(=O)c1[nH]c(C)c2c1CCCCC2=O [Compound 16] |  | 417 nM | 4.3 nM | 760 nM | 990 nM | 1300 nM | 150 nM | 5.5 nM | 
10 | CCOC(=O)c1[nH]c(C)c2c1CCC=CC2=O [Compound 9, Ethyl 3-methyl-4-oxo-2,4,7,8-tetrahydrocyclohepta[c]pyrrole-1-carboxylate] | 2050 nM | 8280 nM |  |  |  |  |  |  | 
11 | COc1ccc(S(=O)(=O)N2CCCCCC2)cc1NC(=O)c1[nH]c(C)c2c1CCCCC2=O [Compound 12, N-(5-(azepan-1-ylsulfonyl)-2-methoxyphenyl)-3-methyl-4-oxo-2,4,5,6,7,8-hexahydrocyclohepta[c]pyrrole-1-carboxamide] |  | 177 nM | 530 nM | 8100 nM | 9000 nM | 2500 nM | 170 nM | 310 nM | GI50HL60 [10]: 570 nM
12 | COc1ccc(S(=O)(=O)N2CCCCC2)cc1NC(=O)c1[nH]c(C)c2c1CCCCC2=O [Compound 15] |  | 47.3 nM | 300 nM | 580 nM | 3500 nM | 1800 nM | 82 nM | 440 nM | 
13 | CCN(CC)S(=O)(=O)c1ccc(OC)c(NC(=O)c2[nH]c(C)c3c2CCCCC3=O)c1 [Compound 11, N-(5-(N,N-diethylsulfamoyl)-2-methoxyphenyl)-3-methyl-4-oxo-2,4,5,6,7,8-hexahydrocyclohepta[c]pyrrole-1-carboxamide] |  | 144 nM | 160 nM | 1100 nM | 2100 nM | 420 nM | 85 nM | 250 nM | GI50HL60 [10]: 1360 nM
14 | CNC(=O)c1[nH]c(C)c2c1CCCCC2=O [1″] | 5080 nM | 6410 nM |  |  |  |  |  |  | 
15 | COc1ccc(S(=O)(=O)N2CCN(C)CC2)cc1NC(=O)c1[nH]c(C)c2c1CCCCC2=O [Compound 14] |  | 260 nM | 68 nM | 240 nM | 1800 nM | 320 nM | 300 nM | 160 nM | GI50HL60 [10]: 2080 nM
